Patent publication US4250259A, “Microbiological production of ketones from C3 -C6 secondary alcohols” (priority 1979, dated 1981)
“Also recorded” adds a separate entry of the source.

Key:
[1] = test system: purified secondary alcohol dehydrogenase (SADH); experiment: substrate specificity and Michaelis constants of purified SADH; format: biochemical, Pseudomonas sp. ATCC 21439
[2] = test system: cell extracts (NAD+-dependent secondary alcohol dehydrogenase); experiment: sec-alcohols to methyl ketones by cell extracts of yeasts, gas chromatography; format: biochemical, Torulopsis sp. strain A1 NRRL-Y-11,419; conditions: grown on methanol
[3] = test system: cell extracts (NAD+-dependent secondary alcohol dehydrogenase); experiment: as above; format: biochemical, Kloeckera sp. strain A2 NRRL-Y-11,420; conditions: grown on methanol
[4] = test system: secondary alcohol dehydrogenase (SADH), cell-free soluble extract; experiment: oxidation of sec-alcohols by cell-free soluble extracts; format: biochemical, Methylobacterium organophilum CRL 26 (NRRL B-11,222); conditions: for Oxidation Rate, sec-alcohol to corresponding ketone: soluble crude extract, grown on methanol
Description: (§1) To prepare the cell-free secondary alcohol dehydrogenase (SADH) system, the washed cells were disrupted with a Wave Energy Ultrasonic Oscillator, Model W201 (Wave Energy System, Inc., Newtown, Pa.) and centrifuged at 20,000×g. for 30 minutes. […] The enzyme activity was measured with a fluorescence spectrophotometer (Perkin Elmer, Model MPF 44A) by following the formation of reduced NAD (EX 340 nm, Em 460 nm). The formation of reduced NAD was also followed with an absorption spectrophotometer at 340 nm. The assay system (3 ml.) contained: potassium phosphate buffer pH 7.0; 150 μmol.; NAD 1 μmol.; a given amount of enzyme preparation; and secondary alcohol 10 μmol. The reaction was started by the addition of substrate. One unit of enzyme activity represents the reduction of one μmole NAD per minute. Protein concentrations were determined by the Lowry method (J. Biol. Chem., 193: 255-275 (1951)).
(§2) The experimental procedure for the tests reported in Table VIII were as follows: 1 mg protein of crude extract was added into a 0.5 ml. 0.05 M phosphate buffer (pH 7.0) in a 10-ml. vial. […] The reaction mixture was incubated at 30° C. on a water bath. A 3 μl sample was removed with a syringe at 15 min. of incubation and was assayed with g.l.c. Catalytic activity was also assayed by fluorescence spectrophotometry.

[5] = test system: purified secondary alcohol dehydrogenase; experiment: substrate specificity, electron acceptor and stoichiometry of purified yeast SADH; conditions: for oxidation by the purified yeast secondary alcohol dehydrogenase: examined spectrophotometrically
[6] = test system: Pichia sp. NRRL-Y-11328; experiment: sec-alcohols to ketones by cell suspensions of yeasts; format: cell-based
[7] = test system: cell extracts (NAD+-dependent secondary alcohol dehydrogenase); experiment: sec-alcohols to methyl ketones by cell extracts of yeasts, gas chromatography; format: biochemical, Hansenula polymorpha ATCC 26,012; conditions: grown on methanol
[8] = test system: secondary alcohol dehydrogenase (SADH), cell-free soluble extract; experiment: oxidation of sec-alcohols by cell-free soluble extracts; format: biochemical, Methylococcus capsulatus CRL M1 (NRRL B-11,219); conditions: for Oxidation Rate, sec-alcohol to corresponding ketone: soluble crude extract, grown on methanol
Description: as §1, §2

[9] = test system: cell suspensions of C1-utilizers; experiment: studies on production of 2-butanone from 2-butanol by cell suspensions of the strains tested; format: cell-based; conditions: for rate of oxidation of secondary alcohols by strains of C1-utilizers: cell suspensions
Text: The following summarizes tests conducted on the optimal conditions for the production of methyl ketones from C3 -C6 sec. alcohols.
The substrate specificity for the oxidation of C3 -C6 secondary alcohols by the strains of C1 -utilizers was studied.

[10] = test system: Torulopsis sp. Strain A1 (NRRLY-11,419); experiment: sec-alcohols to ketones by cell suspensions of yeasts; format: cell-based
[11] = test system: Kloeckera sp. Strain A2 (NRRLY-11,420); experiment: as above; format: cell-based
[12] = test system: Hansenula polymorpha ATCC 26012; experiment: as above; format: cell-based
[13] = test system: secondary alcohol dehydrogenase (SADH), cell-free soluble extract; experiment: oxidation of sec-alcohols by cell-free soluble extracts; format: biochemical, Methylosinus trichosporium OB3b (NRRL B-11,196); conditions: for Oxidation Rate, sec-alcohol to corresponding ketone: soluble crude extract, grown on methanol
Description: as §1, §2

SMILES: CCC(C)O (stereo not drawn) [2-Butanol, 2-butanol]
- oxidation by purified SADH [1]: highest
- Conversion Rate, sec-alcohol to methyl ketone [2]: 4.9 μmoles/hr/mg Protein
- Conversion Rate, sec-alcohol to methyl ketone [3]: 5.9 μmoles/hr/mg Protein
- Conversion Rate, 2-butanol to 2-butanone ([4]; Growth Substrate CH3 NH2): 2.0 nmoles/min/mg protein
- Conversion Rate, 2-butanol to 2-butanone ([4]; Growth Substrate CH3 OH): 2.5 nmoles/min/mg protein
- Conversion Rate, 2-butanol to 2-butanone ([4]; Growth Substrate CH4): 1.8 nmoles/min/mg protein
- Conversion Rate, 2-butanol to 2-butanone ([4]; Growth Substrate HCOOCH3): 2.0 nmoles/min/mg protein
- Oxidation Rate, sec-alcohol to corresponding ketone [4]: 2.5 nmole/min/mg protein
- oxidation by the purified yeast secondary alcohol dehydrogenase [5]: catalyzed the oxidation
- Product Formed ([5]; stoichiometry, Acetone from Isopropanol, 2-Butanone from 2-Butanol, gas chromatography): 5.7 µmol
- Conversion Rate, sec-alcohol to corresponding ketone ([6]; Growth Substrate Ethanol): 6.2 μmoles/hr/mg of protein
- Conversion Rate, sec-alcohol to corresponding ketone ([6]; Growth Substrate Methanol): 6.8 μmoles/hr/mg of protein
- Conversion Rate, sec-alcohol to corresponding ketone ([6]; Growth Substrate Methylamine): 5.1 μmoles/hr/mg of protein
- Conversion Rate, sec-alcohol to corresponding ketone ([6]; Growth Substrate Methylformate): 6.9 μmoles/hr/mg of protein
- Conversion Rate, sec-alcohol to corresponding ketone ([6]; Growth Substrate Propylamine): 2.1 μmoles/hr/mg of protein
- Conversion Rate, sec-alcohol to methyl ketone [7]: 5.2 μmoles/hr/mg Protein
- Conversion Rate, 2-butanol to 2-butanone ([8]; Growth Substrate CH3 NH2): 1.8 nmoles/min/mg protein
- Conversion Rate, 2-butanol to 2-butanone ([8]; Growth Substrate CH3 OH): 2.0 nmoles/min/mg protein
- Conversion Rate, 2-butanol to 2-butanone ([8]; Growth Substrate CH4): 3.2 nmoles/min/mg protein
- Conversion Rate, 2-butanol to 2-butanone ([8]; Growth Substrate HCOOCH3): 2.0 nmoles/min/mg protein
- Oxidation Rate, sec-alcohol to corresponding ketone [8]: 2.0 nmole/min/mg protein
- rate of oxidation of secondary alcohols by strains of C1-utilizers [9]: highest rate; also recorded: higher rates
- 2-butanol concentration supporting maximum 2-butanone production ([9]; cell suspensions of yeast and Pseudomonas sp. ATCC 21,439, 35 min. incubation): about 50 μmoles
- Conversion Rate, sec-alcohol to corresponding ketone ([10]; Growth Substrate Ethanol): 4.7 μmoles/hr/mg of protein
- Conversion Rate, sec-alcohol to corresponding ketone ([10]; Growth Substrate Methanol): 4.9 μmoles/hr/mg of protein
- Conversion Rate, sec-alcohol to corresponding ketone ([10]; Growth Substrate Methylamine): 4.5 μmoles/hr/mg of protein
- Conversion Rate, sec-alcohol to corresponding ketone ([10]; Growth Substrate Methylformate): 4.9 μmoles/hr/mg of protein
- Conversion Rate, sec-alcohol to corresponding ketone ([10]; Growth Substrate Propylamine): 3.8 μmoles/hr/mg of protein
- Conversion Rate, sec-alcohol to corresponding ketone ([11]; Growth Substrate Ethanol): 5.7 μmoles/hr/mg of protein
- Conversion Rate, sec-alcohol to corresponding ketone ([11]; Growth Substrate Methanol): 5.9 μmoles/hr/mg of protein
- Conversion Rate, sec-alcohol to corresponding ketone ([11]; Growth Substrate Methylamine): 5.4 μmoles/hr/mg of protein
- Conversion Rate, sec-alcohol to corresponding ketone ([11]; Growth Substrate Methylformate): 5.9 μmoles/hr/mg of protein
- Conversion Rate, sec-alcohol to corresponding ketone ([11]; Growth Substrate Propylamine): 4.2 μmoles/hr/mg of protein
- Conversion Rate, sec-alcohol to corresponding ketone ([12]; Growth Substrate Ethanol): 4.8 μmoles/hr/mg of protein
- Conversion Rate, sec-alcohol to corresponding ketone ([12]; Growth Substrate Methanol): 5.8 μmoles/hr/mg of protein
- Conversion Rate, sec-alcohol to corresponding ketone ([12]; Growth Substrate Methylamine): 4.5 μmoles/hr/mg of protein
- Conversion Rate, sec-alcohol to corresponding ketone ([12]; Growth Substrate Methylformate): 5.2 μmoles/hr/mg of protein
- Conversion Rate, sec-alcohol to corresponding ketone ([12]; Growth Substrate Propylamine): 4.0 μmoles/hr/mg of protein
- Conversion Rate, 2-butanol to 2-butanone ([13]; Growth Substrate CH3 NH2): 2.5 nmoles/min/mg protein
- Conversion Rate, 2-butanol to 2-butanone ([13]; Growth Substrate CH3 OH): 2.4 nmoles/min/mg protein
- Conversion Rate, 2-butanol to 2-butanone ([13]; Growth Substrate CH4): 4.5 nmoles/min/mg protein
- Conversion Rate, 2-butanol to 2-butanone ([13]; Growth Substrate HCOOCH3): 2.0 nmoles/min/mg protein
- Oxidation Rate, sec-alcohol to corresponding ketone [13]: 2.4 nmole/min/mg protein

SMILES: CCCCC(C)O (stereo not drawn) [2-Hexanol, 2-hexanol]
- oxidation by purified SADH [1]: lower rate
- Conversion Rate, sec-alcohol to methyl ketone [2]: 0.21 μmoles/hr/mg Protein
- Conversion Rate, sec-alcohol to methyl ketone [3]: 0.25 μmoles/hr/mg Protein
- Oxidation Rate, sec-alcohol to corresponding ketone [4]: 0 nmole/min/mg protein
- oxidation by the purified yeast secondary alcohol dehydrogenase [5]: catalyzed the oxidation
- Conversion Rate, sec-alcohol to corresponding ketone ([6]; Growth Substrate Ethanol): 0.28 μmoles/hr/mg of protein
- Conversion Rate, sec-alcohol to corresponding ketone ([6]; Growth Substrate Methanol): 0.50 μmoles/hr/mg of protein
- Conversion Rate, sec-alcohol to corresponding ketone ([6]; Growth Substrate Methylamine): 0.31 μmoles/hr/mg of protein
- Conversion Rate, sec-alcohol to corresponding ketone ([6]; Growth Substrate Methylformate): 0.48 μmoles/hr/mg of protein
- Conversion Rate, sec-alcohol to corresponding ketone ([6]; Growth Substrate Propylamine): 0.21 μmoles/hr/mg of protein
- Conversion Rate, sec-alcohol to methyl ketone [7]: 0.51 μmoles/hr/mg Protein
- Oxidation Rate, sec-alcohol to corresponding ketone [8]: 0 nmole/min/mg protein
- rate of oxidation of secondary alcohols by strains of C1-utilizers [9]: much slower rate
- Conversion Rate, sec-alcohol to corresponding ketone ([10]; Growth Substrate Ethanol): 0.20 μmoles/hr/mg of protein
- Conversion Rate, sec-alcohol to corresponding ketone ([10]; Growth Substrate Methanol): 0.21 μmoles/hr/mg of protein
- Conversion Rate, sec-alcohol to corresponding ketone ([10]; Growth Substrate Methylamine): 0.12 μmoles/hr/mg of protein
- Conversion Rate, sec-alcohol to corresponding ketone ([10]; Growth Substrate Methylformate): 0.25 μmoles/hr/mg of protein
- Conversion Rate, sec-alcohol to corresponding ketone ([10]; Growth Substrate Propylamine): 0.10 μmoles/hr/mg of protein
- Conversion Rate, sec-alcohol to corresponding ketone ([11]; Growth Substrate Ethanol): 0.12 μmoles/hr/mg of protein
- Conversion Rate, sec-alcohol to corresponding ketone ([11]; Growth Substrate Methanol): 0.25 μmoles/hr/mg of protein
- Conversion Rate, sec-alcohol to corresponding ketone ([11]; Growth Substrate Methylamine): 0.10 μmoles/hr/mg of protein
- Conversion Rate, sec-alcohol to corresponding ketone ([11]; Growth Substrate Methylformate): 0.28 μmoles/hr/mg of protein
- Conversion Rate, sec-alcohol to corresponding ketone ([11]; Growth Substrate Propylamine): 0.11 μmoles/hr/mg of protein
- Conversion Rate, sec-alcohol to corresponding ketone ([12]; Growth Substrate Ethanol): 0.54 μmoles/hr/mg of protein
- Conversion Rate, sec-alcohol to corresponding ketone ([12]; Growth Substrate Methanol): 0.72 μmoles/hr/mg of protein
- Conversion Rate, sec-alcohol to corresponding ketone ([12]; Growth Substrate Methylamine): 0.62 μmoles/hr/mg of protein
- Conversion Rate, sec-alcohol to corresponding ketone ([12]; Growth Substrate Methylformate): 0.70 μmoles/hr/mg of protein
- Conversion Rate, sec-alcohol to corresponding ketone ([12]; Growth Substrate Propylamine): 0.48 μmoles/hr/mg of protein
- Oxidation Rate, sec-alcohol to corresponding ketone [13]: 0 nmole/min/mg protein
